Reference: patent US20260053811A1, “METHODS OF TREATING HYPERTENSION IN OBESE SUBJECTS” (Mineralys Therapeutics, Inc., priority 2022, published 2026)

Test system: hypertensive subjects
Test: Seated automated office blood pressure (AOBP) in randomized, placebo-controlled, dose-ranging study
Assay type: in vivo, human
Details: Part 1
Method: A randomized, double-blinded, placebo-controlled, dose-ranging, multicenter study was conducted to evaluate the effect of orally administered Compound A HBr on blood pressure for the treatment of hypertension in male and female subjects ≥18 years of age.
The study consists of two parts. For enrollment into Part 1 of the study, a subject's value of plasma renin activity (PRA) must be ≤1 ng/mL/h based on morning measurement. If the value of PRA >1 ng/mL/h based on morning measurement, then subjects may be eligible to enter Part 2 of the study.
For Part 1, 163 enrolled subjects ≥18 years of age were randomized into 6 equal treatment groups (1:1:1:1:1:1) to 12.5 mg BID, 25 mg BID, 12.5 mg QD, 50 mg QD, 100 mg QD, or placebo. After a review of interim clinical data, the 2 lowest dose levels (12.5 mg QD and 12.5 mg BID) were stopped for future randomization due to a lack of consistent meaningful reduction of blood pressure, but the patients randomized to that point remained in the study through completion. Thus, after the review of interim clinical data, subjects were randomized into 4 equal treatment groups (1:1:1:1) to 25 mg BID, 50 mg QD, 100 mg QD, or placebo.
For Part 2, 36 enrolled subjects ≥18 years of age were randomized (5:1) to either 100 mg QD Compound A HBr or placebo such that the Compound A HBr treatment group consisted of approximately 30 subjects and the placebo treatment group will consist of approximately 6 subjects.
Subjects orally administered the assigned study drug (Compound A HBr or placebo) according to the assigned dosing regimen for 8 weeks beginning on Study Day 1. All subjects in Part 1 (regardless of dosing group) received BID dosing to preserve the integrity of the blind; active drug is administered as the morning dose for all QD dose groups. Subjects returned to the research facility or were seen by the clinical investigator or approved home health care professional at the end of Study Weeks 1, 2, 3, 4, 5, 6, 7, and 8 (±2 days) for protocol-defined efficacy and safety assessments and procedures, assessment of adverse events (AEs), and confirmation of compliance with study drug usage. Subjects also completed a telephone visit and blood pressure (BP) check at home approximately 3 days post last dose of study drug. Subjects attended up to 14 full clinic visits, including a pre-Screening visit, a Screening/start of Placebo Run-in visit, a second visit during Placebo Run-in, a clinic visit to initiate the ABPM procedure, a Randomization visit, 8 weekly visits during double-blind treatment, and an end-of-study visit scheduled 4 weeks after the last study treatment for final efficacy and safety assessments.
An automated oscillometric sphygmomanometer device was used to measure the subjects' systolic and diastolic blood pressure in office after approximately 5 minutes of rest in the seated position.
The primary endpoint is the change in office-measured (mean of last 2 of 5 unattended measurements using an automated oscillometric sphygmomanometer device after approximately 5 minutes of rest in the seated position) systolic blood pressure (SBP) from baseline to the end of Study Week 8.
Secondary endpoints of this study were: • (a) Change in 24-hour ambulatory blood pressure monitoring (ABPM) parameters (systolic and diastolic) from baseline to the end of Study Week 7. • (b) Change in office-measured SBP from baseline to the end of Study Weeks 1, 2, 3, 4, 5, 6, and 7. • (c) Change in office-measured diastolic blood pressure (DBP) from baseline to the end of Study Weeks 1, 2, 3, 4, 5, 6, 7, and 8. • (d) Proportion of subjects who achieve office-measured BP of ≤130/80 mm Hg by the end of Study Week 8.

[1] = 50 mg QD, Systolic Blood Pressure Tertile at Baseline High
[2] = 50 mg QD, Systolic Blood Pressure Tertile at Baseline Low
[3] = 50 mg QD, Systolic Blood Pressure Tertile at Baseline Middle
[4] = 50 mg QD, Thiazide Diuretic Use at Baseline No
[5] = 50 mg QD, Thiazide Diuretic Use at Baseline Yes

CC(=O)N[C@H]1CC[C@H](NC(=O)CN2CCN(c3nncc(-c4ccc(C)cc4)n3)CC2)CC1 [Compound A HBr]
Mean (SD) Change from Baseline at Week 8 in Automated Office-Measured Diastolic Blood Pressure (50 mg QD, Seated SBP Tertile Middle): −10.63 (7.25) mmHg
Mean (SD) Automated Office-Measured Diastolic Blood Pressure at Wk 8 (50 mg QD, Sex Female): 75.67 (12.10) mmHg
Mean (SD) Automated Office-Measured Systolic Blood Pressure at Wk 8 (50 mg QD, Sex Female): 125.67 (11.97) mmHg
Mean (SD) Change from Baseline at Week 8 in Automated Office-Measured Diastolic Blood Pressure (50 mg QD, Sex Female): −9.20 (10.37) mmHg
Mean (SD) Change from Baseline at Week 8 in Automated Office-Measured Systolic Blood Pressure (50 mg QD, Sex Female): −15.97 (18.44) mmHg
Mean (SD) Automated Office-Measured Diastolic Blood Pressure at Wk 8 (50 mg QD, Sex Male): 78.15 (6.52) mmHg
Mean (SD) Change from Baseline at Week 8 in Automated Office-Measured Diastolic Blood Pressure (50 mg QD, Sex Male): −6.73 (7.65) mmHg
Mean (SD) Change from Baseline at Week 8 in Automated Office-Measured Systolic Blood Pressure (50 mg QD, Sex Male): −9.96 (15.67) mmHg
Mean (SD) Automated Office-Measured Systolic Blood Pressure at Wk 8 [1]: 127.25 (17.59) mmHg
Mean (SD) Change from Baseline at Week 8 in Automated Office-Measured Systolic Blood Pressure [1]: −29.25 (14.31) mmHg
Mean (SD) Automated Office-Measured Systolic Blood Pressure at Wk 8 [2]: 130.25 (12.04) mmHg
Mean (SD) Change from Baseline at Week 8 in Automated Office-Measured Systolic Blood Pressure [2]: −2.58 (12.54) mmHg
Mean (SD) Automated Office-Measured Systolic Blood Pressure at Wk 8 [3]: 127.63 (13.35) mmHg
Mean (SD) Change from Baseline at Week 8 in Automated Office-Measured Systolic Blood Pressure [3]: −13.00 (14.05) mmHg
Automated Office-Measured Diastolic Blood Pressure, Week 8, Mean (SD) [4]: 78.00 (6.42) mmHg
Mean (SD) Automated Office-Measured Systolic Blood Pressure at Wk 8 [4]: 130.00 (13.65) mmHg
Mean (SD) Change from Baseline at Week 8 in Automated Office-Measured Diastolic Blood Pressure [4]: −4.71 (7.77) mmHg
Mean (SD) Change from Baseline at Week 8 in Automated Office-Measured Systolic Blood Pressure [4]: −7.67 (15.11) mmHg
Automated Office-Measured Diastolic Blood Pressure, Week 8, Mean (SD) [5]: 75.94 (11.89) mmHg
Mean (SD) Automated Office-Measured Systolic Blood Pressure at Wk 8 [5]: 127.63 (14.08) mmHg
Mean (SD) Change from Baseline at Week 8 in Automated Office-Measured Diastolic Blood Pressure [5]: −10.56 (9.49) mmHg
Mean (SD) Change from Baseline at Week 8 in Automated Office-Measured Systolic Blood Pressure [5]: −17.31 (17.91) mmHg
Mean (SD) Automated Office-Measured Systolic Blood Pressure at Wk 8 (100 mg QD, ACEi/ARB No): 116.80 (7.19) mmHg
Mean (SD) Change from Baseline at Week 8 in Automated Office-Measured Systolic Blood Pressure (100 mg QD, ACEi/ARB No): −23.70 (8.89) mmHg
Mean (SD) Automated Office-Measured Systolic Blood Pressure at Wk 8 (100 mg QD, ACEi/ARB Yes): 134.90 (13.12) mmHg
Mean (SD) Change from Baseline at Week 8 in Automated Office-Measured Systolic Blood Pressure (100 mg QD, ACEi/ARB Yes): −11.68 (13.23) mmHg
Mean (SD) Automated Office-Measured Diastolic Blood Pressure at Wk 8 (100 mg QD, ACEi/ARBs No): 71.40 (10.62) mmHg
Mean (SD) Change from Baseline at Week 8 in Automated Office-Measured Diastolic Blood Pressure (100 mg QD, ACEi/ARBs No): −9.00 (6.21) mmHg
Mean (SD) Automated Office-Measured Diastolic Blood Pressure at Wk 8 (100 mg QD, ACEi/ARBs Yes): 73.40 (9.37) mmHg
Mean (SD) Change from Baseline at Week 8 in Automated Office-Measured Diastolic Blood Pressure (100 mg QD, ACEi/ARBs Yes): −4.58 (8.10) mmHg
Mean (SD) Automated Office-Measured Diastolic Blood Pressure at Wk 8 (100 mg QD, AHTs 2): 74.09 (4.66) mmHg
Mean (SD) Automated Office-Measured Systolic Blood Pressure at Wk 8 (100 mg QD, AHTs 2): 124.82 (13.25) mmHg
Mean (SD) Change from Baseline at Week 8 in Automated Office-Measured Diastolic Blood Pressure (100 mg QD, AHTs 2): −8.09 (8.81) mmHg
Mean (SD) Change from Baseline at Week 8 in Automated Office-Measured Systolic Blood Pressure (100 mg QD, AHTs 2): −17.95 (15.83) mmHg
Mean (SD) Automated Office-Measured Diastolic Blood Pressure at Wk 8 (100 mg QD, AHTs ≥3): 72.14 (12.08) mmHg
Mean (SD) Automated Office-Measured Systolic Blood Pressure at Wk 8 (100 mg QD, AHTs ≥3): 136.36 (13.05) mmHg
Mean (SD) Change from Baseline at Week 8 in Automated Office-Measured Diastolic Blood Pressure (100 mg QD, AHTs ≥3): −3.39 (6.60) mmHg
Mean (SD) Change from Baseline at Week 8 in Automated Office-Measured Systolic Blood Pressure (100 mg QD, AHTs ≥3): −11.04 (10.45) mmHg
Mean (SD) Automated Office-Measured Diastolic Blood Pressure at Wk 8 (100 mg QD, Age 65-79 yr): 72.80 (7.89) mmHg
Mean (SD) Automated Office-Measured Systolic Blood Pressure at Wk 8 (100 mg QD, Age 65-79 yr): 133.73 (12.53) mmHg
Mean (SD) Change from Baseline at Week 8 in Automated Office-Measured Diastolic Blood Pressure (100 mg QD, Age 65-79 yr): −4.37 (7.01) mmHg
Mean (SD) Change from Baseline at Week 8 in Automated Office-Measured Systolic Blood Pressure (100 mg QD, Age 65-79 yr): −9.53 (11.49) mmHg
Mean (SD) Automated Office-Measured Diastolic Blood Pressure at Wk 8 (100 mg QD, Age <65 yr): 78.33 (9.69) mmHg
Mean (SD) Automated Office-Measured Systolic Blood Pressure at Wk 8 (100 mg QD, Age <65 yr): 129.33 (20.63) mmHg
Mean (SD) Change from Baseline at Week 8 in Automated Office-Measured Diastolic Blood Pressure (100 mg QD, Age <65 yr): −8.67 (10.16) mmHg
Mean (SD) Change from Baseline at Week 8 in Automated Office-Measured Systolic Blood Pressure (100 mg QD, Age <65 yr): −22.75 (14.75) mmHg
